# Values quoted from earlier work in patent publication US20170014318A9, “Hair-growth-promoting solution containing chlorine dioxide, preparation methods and using methods thereof” (priority 2011, published 2017).
# Assays:
# skin and eye mucous = conditions: solution containing 9.7 to 11.4 mg/L of chlorine dioxide
# [1] = 276.5 mg/L aqueous solution
# [2] = 276.5 mg/L aqueous solution; remark: listed apart in the source
compound,measurement,setting,value
[O][Cl+][O-] [chlorine dioxide],48 hour skin and eye mucous irritating score,skin and eye mucous,0
same,toxicity of aqueous solution,[1],actually non-toxic
same,accumulated toxicity,[2],no significant accumulated toxicity
stable chlorine dioxide,oral LD50,mice,> 10000 mg/kg
